Data taken from article PMC12434667 (Journal of Medicinal Chemistry, 2025).
≈ marks a conversion by molar mass, not a printed value. Values belong to the compound of their own block, whether it stands above or below them.

Key:
CDK1/cyclinB1 = CDK1/cyclinB1 (Homo sapiens, UniProt P06493); conditions: biochemical IC50 vs CDK2
CDK2/CRBN = CDK2/CRBN (Homo sapiens, UniProt P24941+Q96SW2); experiment: AlphaLisa ternary complex formation assay; type: binding; conditions: compound 28 used as 100% control
Sequence of CDK2/CRBN (Q16531 whole entry): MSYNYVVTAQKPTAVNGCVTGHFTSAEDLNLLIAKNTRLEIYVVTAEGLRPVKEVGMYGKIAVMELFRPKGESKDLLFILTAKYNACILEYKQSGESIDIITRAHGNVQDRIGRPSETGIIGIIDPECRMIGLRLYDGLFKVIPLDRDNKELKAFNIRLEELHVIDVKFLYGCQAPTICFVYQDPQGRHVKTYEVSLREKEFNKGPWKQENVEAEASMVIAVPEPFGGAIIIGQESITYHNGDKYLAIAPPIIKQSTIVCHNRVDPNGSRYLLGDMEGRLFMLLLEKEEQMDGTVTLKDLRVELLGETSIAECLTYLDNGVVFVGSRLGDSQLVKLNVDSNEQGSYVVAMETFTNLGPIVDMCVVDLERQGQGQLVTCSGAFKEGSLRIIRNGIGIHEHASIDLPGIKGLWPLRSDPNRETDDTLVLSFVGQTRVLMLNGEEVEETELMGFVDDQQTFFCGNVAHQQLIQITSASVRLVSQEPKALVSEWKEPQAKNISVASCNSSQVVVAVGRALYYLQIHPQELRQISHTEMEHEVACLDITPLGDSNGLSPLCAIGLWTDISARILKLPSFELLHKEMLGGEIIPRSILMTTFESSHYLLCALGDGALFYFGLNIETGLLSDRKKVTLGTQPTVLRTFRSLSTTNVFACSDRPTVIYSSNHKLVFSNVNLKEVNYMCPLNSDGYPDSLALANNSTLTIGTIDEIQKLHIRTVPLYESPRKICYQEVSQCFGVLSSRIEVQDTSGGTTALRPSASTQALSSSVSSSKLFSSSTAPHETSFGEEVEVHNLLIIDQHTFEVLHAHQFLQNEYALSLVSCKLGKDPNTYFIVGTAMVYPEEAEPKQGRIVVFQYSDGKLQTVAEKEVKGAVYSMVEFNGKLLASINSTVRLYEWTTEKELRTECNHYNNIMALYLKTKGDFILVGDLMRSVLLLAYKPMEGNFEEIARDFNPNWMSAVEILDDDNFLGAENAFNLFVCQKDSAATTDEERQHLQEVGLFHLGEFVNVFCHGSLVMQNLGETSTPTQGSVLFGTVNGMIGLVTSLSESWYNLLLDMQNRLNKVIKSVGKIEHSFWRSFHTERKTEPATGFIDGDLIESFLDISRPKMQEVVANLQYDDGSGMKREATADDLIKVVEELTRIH
Sequence of CDK2/CRBN (Q96SW2 40-442): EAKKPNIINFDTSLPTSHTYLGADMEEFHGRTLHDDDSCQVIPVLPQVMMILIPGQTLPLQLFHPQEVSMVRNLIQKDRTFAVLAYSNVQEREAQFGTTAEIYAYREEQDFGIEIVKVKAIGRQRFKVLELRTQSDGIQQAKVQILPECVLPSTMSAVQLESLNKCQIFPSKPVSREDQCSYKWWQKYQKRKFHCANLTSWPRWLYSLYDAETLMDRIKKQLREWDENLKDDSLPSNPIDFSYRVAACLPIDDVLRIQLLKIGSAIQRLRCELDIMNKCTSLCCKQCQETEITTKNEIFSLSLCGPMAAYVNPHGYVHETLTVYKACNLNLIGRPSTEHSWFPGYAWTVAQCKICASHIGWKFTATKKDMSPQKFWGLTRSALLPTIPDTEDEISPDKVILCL

CYP3A4 = CYP3A4 (Homo sapiens, UniProt P08684); experiment: Cyp3A4 TDI; type: in vitro ADME
Sequence of CYP3A4 (P08684 whole entry): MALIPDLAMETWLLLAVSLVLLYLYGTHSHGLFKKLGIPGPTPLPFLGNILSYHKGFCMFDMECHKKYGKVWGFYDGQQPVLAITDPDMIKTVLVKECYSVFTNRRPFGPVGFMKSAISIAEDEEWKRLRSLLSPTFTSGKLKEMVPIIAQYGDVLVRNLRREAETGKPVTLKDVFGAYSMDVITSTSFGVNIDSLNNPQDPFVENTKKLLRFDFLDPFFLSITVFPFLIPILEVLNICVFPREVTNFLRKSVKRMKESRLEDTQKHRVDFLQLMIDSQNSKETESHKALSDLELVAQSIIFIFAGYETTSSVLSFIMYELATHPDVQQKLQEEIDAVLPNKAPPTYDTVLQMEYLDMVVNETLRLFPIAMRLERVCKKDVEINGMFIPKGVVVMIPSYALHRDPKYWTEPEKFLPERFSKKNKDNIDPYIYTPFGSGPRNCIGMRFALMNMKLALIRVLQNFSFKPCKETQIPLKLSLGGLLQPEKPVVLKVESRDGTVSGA

HCC1569 tumor xenograft = HCC1569 tumor xenograft efficacy; type: in vivo, mouse; conditions: 150 mg/kg PO BID, 28 days
CDK9/CyclinT1 = CDK9/CyclinT1 (Homo sapiens, UniProt P50750); experiment: Biochemical enzymatic inhibition assay; conditions: biochemical IC50 vs CDK2
[1] = system: panel of nonmutant kinases; experiment: Kinomescan panel; type: binding; conditions: for kinases tested showing >90% inhibition versus control: 1 μM, panel of 403 nonmutant kinases; for kinomescan S(10) score: 1 uM, nonmutant kinases with % Ctrl <10 / nonmutant kinases tested
CDK4/CyclinD3 = CDK4/CyclinD3 (Homo sapiens, UniProt P11802); experiment: Biochemical enzymatic inhibition assay; conditions: biochemical IC50 vs CDK2
Sequence of CDK4/CyclinD3 (P11802 whole entry): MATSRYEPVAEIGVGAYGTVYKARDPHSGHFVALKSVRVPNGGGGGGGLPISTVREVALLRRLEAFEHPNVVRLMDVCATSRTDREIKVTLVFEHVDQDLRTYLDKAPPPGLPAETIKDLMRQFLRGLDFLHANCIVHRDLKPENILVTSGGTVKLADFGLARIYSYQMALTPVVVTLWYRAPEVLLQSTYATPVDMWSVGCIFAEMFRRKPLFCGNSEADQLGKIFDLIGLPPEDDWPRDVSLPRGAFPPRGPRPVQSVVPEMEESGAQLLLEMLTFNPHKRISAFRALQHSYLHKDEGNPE
Sequence of CDK4/CyclinD3 (P30281 whole entry partner): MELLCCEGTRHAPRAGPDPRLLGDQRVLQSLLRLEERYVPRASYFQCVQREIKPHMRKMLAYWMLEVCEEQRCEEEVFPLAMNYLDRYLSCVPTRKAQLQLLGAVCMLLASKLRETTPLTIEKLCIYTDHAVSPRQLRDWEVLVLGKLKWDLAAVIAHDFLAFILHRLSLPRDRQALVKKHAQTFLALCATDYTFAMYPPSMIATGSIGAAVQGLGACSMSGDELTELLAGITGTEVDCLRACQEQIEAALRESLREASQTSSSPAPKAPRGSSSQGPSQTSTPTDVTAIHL

CDK6/CyclinD3 = CDK6/CyclinD3 (Homo sapiens, UniProt Q00534); experiment: Biochemical enzymatic inhibition assay; conditions: biochemical IC50 vs CDK2
Sequence of CDK6/CyclinD3 (Q00534 whole entry): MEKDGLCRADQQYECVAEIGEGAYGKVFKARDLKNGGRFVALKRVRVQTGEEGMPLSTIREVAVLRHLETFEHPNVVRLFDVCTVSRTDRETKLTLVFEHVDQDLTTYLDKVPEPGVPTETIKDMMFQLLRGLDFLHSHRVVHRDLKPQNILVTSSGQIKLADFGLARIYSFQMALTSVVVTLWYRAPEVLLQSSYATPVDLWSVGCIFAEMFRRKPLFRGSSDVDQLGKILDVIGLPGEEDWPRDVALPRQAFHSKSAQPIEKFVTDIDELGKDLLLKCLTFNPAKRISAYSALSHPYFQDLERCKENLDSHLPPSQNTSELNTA
Sequence of CDK6/CyclinD3 (P30281 whole entry partner): as the sequence (P30281 whole entry partner) above

MDR1 = MDR1 (Homo sapiens, UniProt P08183); experiment: MDCK-MDR1 efflux ratio; type: in vitro ADME; conditions: dog, MDCK-MDR1, pH 7.4
Sequence of MDR1 (P08183 whole entry, species assumed): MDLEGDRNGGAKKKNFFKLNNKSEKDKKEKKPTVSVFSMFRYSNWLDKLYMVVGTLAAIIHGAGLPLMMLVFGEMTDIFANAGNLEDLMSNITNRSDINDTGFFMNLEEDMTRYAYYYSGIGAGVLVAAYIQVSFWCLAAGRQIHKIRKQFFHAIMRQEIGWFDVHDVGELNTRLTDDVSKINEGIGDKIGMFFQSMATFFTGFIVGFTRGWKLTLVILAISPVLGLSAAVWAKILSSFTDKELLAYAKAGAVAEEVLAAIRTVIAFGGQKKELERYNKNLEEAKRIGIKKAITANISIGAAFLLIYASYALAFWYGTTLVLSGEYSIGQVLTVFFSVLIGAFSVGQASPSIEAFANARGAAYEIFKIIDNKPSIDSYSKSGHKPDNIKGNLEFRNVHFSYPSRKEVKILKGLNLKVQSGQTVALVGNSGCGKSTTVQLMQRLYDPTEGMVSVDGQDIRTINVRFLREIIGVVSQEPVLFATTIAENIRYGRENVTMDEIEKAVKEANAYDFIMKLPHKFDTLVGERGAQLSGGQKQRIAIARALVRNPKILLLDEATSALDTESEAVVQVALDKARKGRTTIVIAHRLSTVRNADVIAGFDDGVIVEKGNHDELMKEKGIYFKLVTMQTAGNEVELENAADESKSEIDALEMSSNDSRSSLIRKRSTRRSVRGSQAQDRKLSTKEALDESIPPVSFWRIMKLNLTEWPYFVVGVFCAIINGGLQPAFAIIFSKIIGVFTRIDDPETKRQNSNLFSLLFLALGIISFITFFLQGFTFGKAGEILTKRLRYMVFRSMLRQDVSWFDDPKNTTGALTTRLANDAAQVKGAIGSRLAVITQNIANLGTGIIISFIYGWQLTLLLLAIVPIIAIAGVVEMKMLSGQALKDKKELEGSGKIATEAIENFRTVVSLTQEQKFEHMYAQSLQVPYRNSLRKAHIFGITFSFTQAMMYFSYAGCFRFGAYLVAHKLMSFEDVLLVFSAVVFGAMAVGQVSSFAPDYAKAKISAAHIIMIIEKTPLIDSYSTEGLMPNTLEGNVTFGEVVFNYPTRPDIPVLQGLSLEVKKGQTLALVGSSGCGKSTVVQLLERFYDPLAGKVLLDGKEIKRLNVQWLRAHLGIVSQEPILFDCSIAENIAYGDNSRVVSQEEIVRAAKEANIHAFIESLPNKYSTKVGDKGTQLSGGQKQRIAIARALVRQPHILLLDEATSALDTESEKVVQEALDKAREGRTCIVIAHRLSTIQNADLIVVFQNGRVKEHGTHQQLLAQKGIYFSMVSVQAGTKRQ

Rat PK = type: in vivo; conditions: in vivo; for Vd / clearance / half-life: iv, 2 mg/kg; for bioavailability: oral, 10 mg/kg
Microsomal stability [2] = type: in vitro ADME; conditions: human, liver microsomes
LogD = type: physicochemical; conditions: 1-octanol/phosphate buffer, pH 7.4
[3] = MDCK passive permeability; type: in vitro ADME, canine; conditions: dog, pH 7.4
CDK2 = CDK2 (Homo sapiens, UniProt P24941); experiment: 14-hr AlphaLISA of CDK2 degradation in MKN1 CCNE1amp cells; type: cell-based; conditions: read-out: MKN1 CDK2 DC50
Microsomal stability [4] = type: in vitro ADME; conditions: rat, liver microsomes
FaSSIF solubility = type: physicochemical; conditions: kinetic from dmso stock
[5] = CYP3A4 TDI (+NADPH), 30 min pre-incubation with NADPH
[6] = CYP3A4 TDI (-NADPH), 30 min pre-incubation without NADPH

Sequence of CDK1/cyclinB1 (P14635 whole entry): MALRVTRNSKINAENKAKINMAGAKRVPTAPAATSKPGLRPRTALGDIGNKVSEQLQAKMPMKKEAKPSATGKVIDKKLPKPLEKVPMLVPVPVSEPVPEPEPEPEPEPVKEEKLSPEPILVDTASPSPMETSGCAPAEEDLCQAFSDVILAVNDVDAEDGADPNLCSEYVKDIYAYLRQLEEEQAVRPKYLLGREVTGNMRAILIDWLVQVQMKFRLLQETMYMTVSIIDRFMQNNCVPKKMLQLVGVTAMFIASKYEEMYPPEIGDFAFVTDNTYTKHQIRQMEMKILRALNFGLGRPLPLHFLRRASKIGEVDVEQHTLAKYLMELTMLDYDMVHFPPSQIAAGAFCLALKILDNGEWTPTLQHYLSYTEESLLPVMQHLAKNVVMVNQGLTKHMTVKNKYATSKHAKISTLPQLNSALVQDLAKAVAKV
Sequence of CDK1/cyclinB1 (P06493 whole entry): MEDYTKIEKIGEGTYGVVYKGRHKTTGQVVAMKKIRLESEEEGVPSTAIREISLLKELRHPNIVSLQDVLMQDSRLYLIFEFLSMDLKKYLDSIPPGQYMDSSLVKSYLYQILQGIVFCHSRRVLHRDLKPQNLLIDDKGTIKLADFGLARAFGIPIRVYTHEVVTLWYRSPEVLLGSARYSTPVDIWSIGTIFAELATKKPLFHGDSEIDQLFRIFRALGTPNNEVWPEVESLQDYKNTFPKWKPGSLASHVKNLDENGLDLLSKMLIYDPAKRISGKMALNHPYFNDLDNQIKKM

Structure (SMILES): CNS(=O)(=O)c1ccc(Nc2ncc(C(F)(F)F)c([C@H]3CC[C@](C)(O)CC3)n2)c(C)c1 [Compound 4, trans-4-[[4-(4-Hydroxy-4-methyl-cyclohexyl)-5-(trifluoromethyl)pyrimidin-2-yl]amino]-N,3-dimethyl-benzenesulfonamide]
selectivity vs CDK1 (CDK1/cyclinB1): 16 fold

Structure (SMILES): COCc1cc(C(=O)Nc2cc([C@H]3CC[C@@H](OC(=O)NC(C)C)C3)[nH]n2)n(C)n1 [PF-07104091, reference compound]
antitumor activity (HCC1569 tumor xenograft): stable disease (30 to −30% is stable disease (0% = Tumor Stasis)) | day 28 %dTV (mean ± SEM) (HCC1569 tumor xenograft; HCC1569 xenograft mice): 4 ± 15%

Structure (SMILES): CNS(=O)(=O)c1ccc(Nc2ncc(C(F)(F)F)c([C@H]3CC[C@@](C)(O)CC3)n2)c(C)c1 [Compound 3]
selectivity vs CDK9 (CDK9/CyclinT1): > 357 fold | selectivity vs CDK1 (CDK1/cyclinB1): 47 fold | kinases tested showing >90% inhibition versus control [1]: 2/403

Structure (SMILES): Cc1cc(S(=O)(=O)NC2CC(N3CCN(CC4CCN(c5cccc6c5n(C)c(=O)n6C5CCC(=O)NC5=O)CC4)C4(CC4)C3)C2)ccc1Nc1ncc(C(F)(F)F)c(N2CCC[C@](C)(O)C2)n1 (stereo partly shown) [Compound 19]
CDK2/CRBN/degrader ternary complex normalized AUC (CDK2/CRBN): 27

Structure (SMILES): CNS(=O)(=O)c1ccc(Nc2ncc3cc(Cl)c(=O)n(C4CCCC4)c3n2)c(C)c1 [Compound 1]
kinases tested showing >90% inhibition versus control [1]: 18/403 | selectivity over CDK4 (CDK4/CyclinD3): > 44 fold | selectivity over CDK6 (CDK6/CyclinD3): > 124 fold

Structure (SMILES): Cc1cc(S(=O)(=O)NCCO[C@H]2CC[C@H](CN3CCC(c4ccc5c(c4F)n(C)c(=O)n5C4CCC(=O)NC4=O)CC3)CC2)ccc1Nc1ncc(C(F)(F)F)c([C@H]2CC[C@@](C)(O)CC2)n1 (stereo partly shown) [Compound 9]
efflux ratio at 120 min, 1 μM (MDR1): > 54 | Vd (Rat PK): 11 L/kg | clearance (Rat PK): 45 mL/min/kg | half-life (Rat PK): 4.9 h | bioavailability (Rat PK): 5% | CLint scaled at 1 µM (Microsomal stability [2]): 102 mL/min/kg | logD at 1 h (LogD): 4.6 | Papp A→B at 120 min, 1 µM [3]: 2 ×10⁻⁶ cm/s | DC50 (CDK2): 12 nM | CLint scaled at 1 µM (Microsomal stability [4]): 26 mL/min/kg | solubility at 2 h (FaSSIF solubility): 173 µM (≈ 163 µg/mL)

Structure (SMILES): CNS(=O)(=O)c1ccc(Nc2ncc(C(F)(F)F)c(N3CCC[C@](C)(O)C3)n2)c(C)c1 [Compound 7]
selectivity vs CDK9 (CDK9/CyclinT1): > 5000 fold | selectivity vs CDK1 (CDK1/cyclinB1): 42 fold | kinases tested showing >90% inhibition versus control [1]: 4/403

Structure (SMILES): Cc1cc(S(=O)(=O)NCCO[C@H]2CC[C@H](CN3CCC(c4ccc5c(c4)n(C)c(=O)n5C4CCC(=O)NC4=O)CC3)CC2)ccc1Nc1ncc(C(F)(F)F)c([C@H]2CC[C@@](C)(O)CC2)n1 (stereo partly shown) [Compound 8]
efflux ratio at 120 min, 1 μM (MDR1): > 30 | Vd (Rat PK): 15 L/kg | clearance (Rat PK): 59 mL/min/kg | half-life (Rat PK): 5.7 h | bioavailability (Rat PK): 1% | CLint scaled at 1 µM (Microsomal stability [2]): 79 mL/min/kg | logD at 1 h (LogD): 4.1 | Papp A→B at 120 min, 1 µM [3]: 1 ×10⁻⁶ cm/s | DC50 (CDK2): 4.9 nM | CLint scaled at 1 µM (Microsomal stability [4]): < 21 mL/min/kg | solubility at 2 h (FaSSIF solubility): 153 µM (≈ 142 µg/mL)

Structure (SMILES): [2H][C@@](C)(COC1CCC(CN2CCN(c3ccc4c(c3F)n(C)c(=O)n4C3CCC(=O)NC3=O)CC2)CC1)NS(=O)(=O)c1ccc(Nc2ncc(C(F)(F)F)c(N3CCC[C@](C)(O)C3)n2)c(C)c1 (stereo partly shown) [Compound 13]
efflux ratio at 120 min, 1 μM (MDR1): 91 | CLint scaled at 1 µM (Microsomal stability [2]): 143 mL/min/kg | logD at 1 h (LogD): 4.6 | Papp A→B at 120 min, 1 µM [3]: 2.3 ×10⁻⁶ cm/s | DC50 (CDK2): 1 nM | CLint scaled at 1 µM (Microsomal stability [4]): 25 mL/min/kg | solubility at 2 h (FaSSIF solubility): 62 µM (≈ 59.5 µg/mL)

Structure (SMILES): Cc1cc(S(=O)(=O)N[C@H]2CC[C@H](N3CCN(CC4CCN(c5cccc6c5n(C)c(=O)n6C5CCC(=O)NC5=O)CC4)CC3)CC2)ccc1Nc1ncc(C(F)(F)F)c(N2CCC[C@](C)(O)C2)n1 (stereo partly shown) [Compound 14]
CDK2/CRBN/degrader ternary complex normalized AUC (CDK2/CRBN): 10

Structure (SMILES): Cc1cc(S(=O)(=O)N[C@H]2CC[C@H](CN3CCN(c4ccc(C5CCC(=O)NC5=O)cc4F)CC3)CC2)ccc1Nc1ncc(C(F)(F)F)c(N2CCC[C@](C)(O)C2)n1 (stereo partly shown) [Compound 29]
kinomescan S(10) score [1]: 0.007

Structure (SMILES): Cc1cc(S(=O)(=O)N[C@]2(C)C[C@@H](N3CCN(CC4CCN(c5ccc6c(c5F)n(C)c(=O)n6C5CCC(=O)NC5=O)CC4)CC3)C2)ccc1Nc1ncc(C(F)(F)F)c(N2CCC[C@](C)(O)C2)n1 (stereo partly shown) [Compound 17]
CDK2/CRBN/degrader ternary complex normalized AUC (CDK2/CRBN): 13

Structure (SMILES): Cc1cc(S(=O)(=O)NC2CC(N3CCN(CC4CCN(c5cccc6c5n(C)c(=O)n6C5CCC(=O)NC5=O)CC4)CC3)C2)ccc1Nc1ncc(C(F)(F)F)c(N2CCC[C@](C)(O)C2)n1 (stereo partly shown) [Compound 15]
CDK2/CRBN/degrader ternary complex normalized AUC (CDK2/CRBN): 9.5

Now from value to compound, other results behind:

CDK2/CRBN/degrader ternary complex normalized AUC (CDK2/CRBN): 4.8
Structure (SMILES): Cc1cc(S(=O)(=O)N[C@H]2C[C@H](CN3CCN(c4ccc(C5CCC(=O)NC5=O)c(Cl)c4)CC3)C2)ccc1Nc1ncc(C(F)(F)F)c(N2CCC[C@](C)(O)C2)n1 (stereo partly shown) [Compound 23]

CDK2/CRBN/degrader ternary complex normalized AUC (CDK2/CRBN): 35
Structure (SMILES): Cc1cc(S(=O)(=O)N[C@H]2CC[C@H](CN3CCN(c4ccc(NC5CCC(=O)NC5=O)cc4F)CC3)CC2)ccc1Nc1ncc(C(F)(F)F)c(N2CCC[C@](C)(O)C2)n1 (stereo partly shown) [Compound 27]

CDK2/CRBN/degrader ternary complex normalized AUC (CDK2/CRBN): 0
Structure (SMILES): Cc1cc(S(=O)(=O)N[C@H]2C[C@H](CN3CC(c4ccc(C5CCC(=O)NC5=O)c(Cl)c4)C3)C2)ccc1Nc1ncc(C(F)(F)F)c(N2CCC[C@](C)(O)C2)n1 (stereo partly shown) [Compound 22]

CDK2/CRBN/degrader ternary complex normalized AUC (CDK2/CRBN): 92 | CYP3A4 inhibition (in words) (CYP3A4): time- and NADPH-dependent inhibition
Structure (SMILES): Cc1cc(S(=O)(=O)N[C@H]2CC[C@H](CN3CCN(c4ccc(C5CCC(=O)NC5=O)c(Cl)c4)CC3)CC2)ccc1Nc1ncc(C(F)(F)F)c(N2CCC[C@](C)(O)C2)n1 (stereo partly shown) [Compound 24]

CDK2/CRBN/degrader ternary complex normalized AUC (CDK2/CRBN): 0
Structure (SMILES): Cc1cc(S(=O)(=O)NC2CCC(CN3CCN(c4cccc(C5CCC(=O)NC5=O)c4)CC3)CC2)ccc1Nc1ncc(C(F)(F)F)c(N2CCC[C@](C)(O)C2)n1 (stereo partly shown) [Compound 26]

CDK2/CRBN/degrader ternary complex normalized AUC (CDK2/CRBN): 100
Structure (SMILES): Cc1cc(S(=O)(=O)N[C@H]2CC[C@H](CN3CCN(c4cccc(NC5CCC(=O)NC5=O)c4)CC3)CC2)ccc1Nc1ncc(C(F)(F)F)c(N2CCC[C@](C)(O)C2)n1 (stereo partly shown) [Compound 28]

IC50 (CYP3A4; [5]): > 10000 nM | IC50 (CYP3A4; [6]): > 10000 nM
Structure (SMILES): C[C@]1(O)CCCN(c2nc(Nc3ccc(S(=O)(=O)N[C@H]4CC[C@H](CN5CCN(c6ccc(C7CCC(=O)NC7=O)cc6F)CC5)CC4)cc3F)ncc2C(F)(F)F)C1 (stereo partly shown) [Compound 31]
kinomescan S(10) score [1]: 0

CDK2/CRBN/degrader ternary complex normalized AUC (CDK2/CRBN): 7.9
Structure (SMILES): Cc1cc(S(=O)(=O)NC2CC(N3CC[C@@H](OC4CN(c5cccc6c5n(C)c(=O)n6C5CCC(=O)NC5=O)C4)[C@H](F)C3)C2)ccc1Nc1ncc(C(F)(F)F)c(N2CCC[C@](C)(O)C2)n1 (stereo partly shown) [Compound 20]

CDK2/CRBN/degrader ternary complex normalized AUC (CDK2/CRBN): 4.0
Structure (SMILES): Cc1cc(S(=O)(=O)NC2CC(N3CCN(CC4CCN(c5ccc(NC6CCC(=O)NC6=O)cc5C)CC4)CC3)C2)ccc1Nc1ncc(C(F)(F)F)c(N2CCC[C@](C)(O)C2)n1 (stereo partly shown) [Compound 21]

IC50 (CYP3A4; [5]): > 10000 nM | IC50 (CYP3A4; [6]): > 10000 nM
Structure (SMILES): C[C@]1(O)CCCN(c2nc(Nc3ccc(S(=O)(=O)N[C@H]4CC[C@H](CN5CCN(c6ccc(C7CCC(=O)NC7=O)cc6F)CC5)CC4)cc3Cl)ncc2C(F)(F)F)C1 (stereo partly shown) [Compound 32]
kinomescan S(10) score [1]: 0
